Values joined by “and” are separate entries in the source; they are usually repeats but may differ in a detail not shown here. Equal entries are not always repeated. Where two headings read alike, the source gives them in different places.
Assays:
[1] = test system: U251 (human glioblastoma); test: Sulforhodamine B (SRB) cytotoxicity assay, U251; assay type: cell-based
Text: (§1) The natural products were screened in vitro against the following human cancer cell lines: human mammary adenocarcinoma (MCF-7), human chronic myelogenous leukemia (K562), human glioblastoma (U251), human lung adenocarcinoma (SKLU-1), human colon cancer (HCT-15), human prostate cancer (PC-3), healthy gingival human fibroblasts (FGH), and normal monkey kidney cell lines, which were supplied by the National Cancer Institute (NCI, USA) and American Type Culture Collection (ATTC). The human tumor cytotoxicity was determined using the protein-binding dye sulforhodamine B (SRB) in a microculture assay to measure cell growth, as described in the protocol established by the NCI [30]. The cell lines were cultured in RPMI-1640 medium supplemented with 10% fetal bovine serum, 2 mM L-glutamine, 10,000 units/mL penicillin G sodium, 10,000 μg/mL streptomycin sulfate, and 25 μg/mL amphotericin B (Gibco), and 1% non-essential amino acids (Gibco). They were maintained at 37 °C in a humidified atmosphere with 5% CO2.
(§2) Cytotoxicity after treatment of the tumors cells and normal cells with the test compounds were determined using the protein-binding dye sulforhodamine B (SRB) in a microculture assay to measure cell growth. The cells were removed from the tissue culture flasks by treatment with trypsin, and diluted with fresh media. Of these cell suspensions, 100 μL containing 5000–10,000 cells per well were pipetted into 96-well microtiter plates (Costar) and the material was incubated at 37 °C for 24 h in a 5% CO2 atmosphere. Subsequently, 100 μL of a solution of the compound obtained by diluting the stocks were added to each well. The cultures were exposed to the compound for 48 h. After the incubation period, cells were fixed to the plastic substratum by the addition of 50 μL of cold 50% aqueous trichloroacetic acid. The plates were incubated at 4 °C for 1 h, washed with tap water, and air-dried. The trichloroacetic-acid-fixed cells were stained by the addition of 0.4% SRB. The free SRB solution was then removed by washing with 1% aqueous acetic-acid. The plates were air-dried, and the bound dye was dissolved by the addition of 10 mM unbuffered Tris base (100 μL). The plates were placed on a shaker for 10 min, and the absorption was determined at 515 nm using an ELISA plate reader (Bio-Tex Instruments).

[2] = test system: SKLU-1 (human lung adenocarcinoma); test: Sulforhodamine B (SRB) cytotoxicity assay, SKLU-1; assay type: cell-based; settings: for IC50: SRB assay, 48 h exposure, mean ± SD, read-out: IC50 antiproliferative activity, SKLU-1; for inhibition at 50 µM: primary screening at 50.0 μM, NC = No cytotoxic
Text: as §1, with “CO2. The viability of the cells used in the experiments exceeded 95%, as determined with trypan blue.” for “CO2.”
as §2

[3] = test system: COS-7 normal monkey kidney; test: Sulforhodamine B (SRB) cytotoxicity assay, COS-7 normal cell line; assay type: cell-based; settings: Primates, mean ± SD
Text: as §1, with “CO2. The viability of the cells used in the experiments exceeded 95%, as determined with trypan blue.” for “CO2.”
as §2, with “The plates were incubated at 4 °C for 1 h, washed with tap water, and air-dried. The trichloroacetic-acid-fixed cells were stained by the addition of 0.4% SRB. The free SRB solution was then removed by washing with 1% aqueous acetic-acid. The plates were air-dried, and the bound dye was dissolved by the addition of 10 mM unbuffered Tris base (100 μL).” left out

[4] = test system: K562 (human chronic myelogenous leukemia); test: Sulforhodamine B (SRB) cytotoxicity assay, K562; assay type: cell-based; settings: Homo sapiens, K562
Text: as §1, with “CO2. The viability of the cells used in the experiments exceeded 95%, as determined with trypan blue.” for “CO2.”
as §2

[5] = test system: MCF-7 (human mammary adenocarcinoma); test: Sulforhodamine B (SRB) cytotoxicity assay, MCF-7; assay type: cell-based; settings: for inhibition at 50 µM: primary screening at 50.0 μM
Text: as §1, with “CO2. The viability of the cells used in the experiments exceeded 95%, as determined with trypan blue.” for “CO2.”
as §2

[6] = test system: PC-3 (human prostate cancer); test: Sulforhodamine B (SRB) cytotoxicity assay, PC-3; assay type: cell-based
Text: as §1, with “CO2. The viability of the cells used in the experiments exceeded 95%, as determined with trypan blue.” for “CO2.”
as §2

[7] = test system: HCT-15 (human colon cancer); test: Sulforhodamine B (SRB) cytotoxicity assay, HCT-15; assay type: cell-based
Text: as §1, with “CO2. The viability of the cells used in the experiments exceeded 95%, as determined with trypan blue.” for “CO2.”
as §2

TPA-induced ear edema = TPA-induced ear edema test in mice; assay type: in vivo; settings: mice CD-1, 1.0 μmol ear^-1 topical, 4 h after TPA, mean ± SEM; for Inhibition of Edema (%): NA = Non-active
Method: Male CD-1 mice weighing 25–30 g were maintained under standard laboratory conditions in the animal house (temperature 24 ± 2 °C) in a 12/12 h light/dark cycle, fed a laboratory diet and water ad libitum, following the Mexican official norm NOM-062-Z00-1999.
The TPA-induced ear edema assay in mice was performed as reported in reference. A solution of TPA (2.5 μg) in ethanol (10 μL) was applied topically to both faces (5 μL each ear) of the right ear of the mice, 10 min after solutions of the test substances in their respective solvents were applied (10 μL each face). The left ear received ethanol (10 μL) first, followed by 20 μL of the respective solvent. The mice were killed with CO2 four hours later. A 7-mm diameter plug was removed from each ear. The swelling was assessed as the difference in weight between the left and the right ear. Control animals received the correspondent solvent in each case. Edema inhibition (EI %) was calculated by the equation EI % = 100 − (B × 100/A), where A is the edema induced by TPA alone and B is the edema induced by TPA plus the sample. Indomethacin and celecoxib were used as reference compounds.

[8] = Scavenging activity on free radical DPPH; settings: 30 min, 37 °C; for DPPH inhibitory effect (%): at 100 μM; for IC50: DPPH 100 μM, mean ± SEM
Method: Free radical scavenging activity was measured using an adapted method of Mellors and Tappel. The test was carried out in 96-well microplates. A 50-μL aliquot of the solution of the test compound was mixed with 150 μL of an ethanol solution of DPPH (final concentration 100 μM). The mixture was incubated at 37 °C for 30 min, and the absorbance was then measured at 515 nm using a BioTek microplate reader SYNERGY HT. The percent inhibition was determined by comparison with a 100-μM DPPH ethanol blank solution.

[9] = test system: six human cancer cell lines (U251, PC-3, K562, HCT-15, MCF-7, SKLU-1) and FGH; test: SRB primary screening, whole panel (result in words); assay type: cell-based; settings: primary screening at 50.0 μM, complete panel
Method: The same biological activity was also recently described for icetexane-derivatives isolated from Premna and Amentotaxus species. […] These facts prompted us to assay diterpenoids 3, 4, 6–8 and 10 for antiproliferative activity using six human cancer cell lines (U251, PC-3, K562, HCT-15, MCF-7, and SKLU-1), and a primary culture of healthy gingival human fibroblasts (FGH) at 1.0 or 50.0 μM (when cytotoxicity at 50.0 μM results were too high). […] Overall, the antiproliferative activity determined for 7 was lower than that observed for 6.
as §1, with “CO2. The viability of the cells used in the experiments exceeded 95%, as determined with trypan blue.” for “CO2.”
Cytotoxicity after treatment of the tumors cells and normal cells with the test compounds were determined using the protein-binding dye sulforhodamine B (SRB) in a microculture assay to measure cell growth. […] The plates were placed on a shaker for 10 min, and the absorption was determined at 515 nm using an ELISA plate reader (Bio-Tex Instruments).

[10] = primary screening at 1.0 μM, mean n = 2
[11] = Homo sapiens, SK-LU-1, mean n = 2, read-out: Antiproliferative activity (%), SKLU-1
[12] = Homo sapiens, MCF7, mean n = 2, NC = No cytotoxic, read-out: Antiproliferative activity (%), MCF-7

Compound: COc1cccc2c1C(=O)c1c(O)c3c(c(O)c1C2=O)C[C@@](O)(C(=O)CO)C[C@@H]3O[C@H]1C[C@H](N)[C@H](O)[C@H](C)O1 [Adriamicyn, adriamycin, reference compound]
- IC50 ([1]; Homo sapiens, U-251, 48 h, SRB assay, 48 h exposure, mean ± SD, read-out: IC50 antiproliferative activity, U251): 80 ± 3 nM
- inhibition at 0.5 µM ([1]; Homo sapiens, U-251, positive control at 0.5 μM, mean n = 2, read-out: Antiproliferative activity (%), U251): 96%
- IC50 ([2]; Homo sapiens, SK-LU-1, 48 h): 50 ± 3 nM
- inhibition at 0.5 µM ([2]; Homo sapiens, SK-LU-1, positive control at 0.5 μM, mean n = 2, read-out: Antiproliferative activity (%), SKLU-1): 90%
- IC50 [3]: 250 ± 9 nM
- IC50 ([4]; SRB assay, 48 h exposure, mean ± SD, read-out: IC50 antiproliferative activity, K562): 200 ± 20 nM
- inhibition at 0.5 µM ([4]; positive control at 0.5 μM, mean n = 2, read-out: Antiproliferative activity (%), K562): 100%
- IC50 ([5]; Homo sapiens, MCF7, SRB assay, 48 h exposure, mean ± SD, read-out: IC50 antiproliferative activity, MCF-7): 230 ± 20 nM
- inhibition at 0.5 µM ([5]; Homo sapiens, MCF7, positive control at 0.5 μM, mean n = 2, read-out: Antiproliferative activity (%), MCF-7): 99.1%
- inhibition at 0.5 µM ([6]; positive control at 0.5 μM, mean n = 2, read-out: Antiproliferative activity (%), PC-3): 85.2%
- inhibition at 0.5 µM ([7]; positive control at 0.5 μM, mean n = 2, read-out: Antiproliferative activity (%), HCT-15): 86.9%

Compound: Cc1ccc(-c2cc(C(F)(F)F)nn2-c2ccc(S(N)(=O)=O)cc2)cc1 [Celecoxib, celecoxib, reference compound]
- Edema (TPA-induced ear edema): 6.94 ± 1.56 mg
- Inhibition of Edema (%) (TPA-induced ear edema): 54.34 ± 10.28%
- Inhibition of Edema (%) (TPA-induced ear edema; listed as celecoxib): 54.3 ± 10.3%

Compound: CC(=O)OC1CC2C3(CCCC2(C)C(=O)O3)CC2=C1C(=O)C(C(C)C)=C(O)C2=O (stereo not drawn) [Compound 3, 7α-Acetoxy-6,7-dihydroicetexone]
- inhibition at 1 µM ([1]; Homo sapiens, U-251, primary screening at 1.0 μM, mean n = 2, read-out: Antiproliferative activity (%), U251): 65.4%
- Antiproliferative activity (%), U251 [1, 10]: moderately active
- SI (selectivity index), U251 ([1]; quotient of IC50 of COS-7 / IC50 of U251): 1.2
- IC50 ([2]; Homo sapiens, SK-LU-1, 48 h): 460 ± 50 nM
- inhibition at 1 µM ([2]; Homo sapiens, SK-LU-1, primary screening at 1.0 μM, mean n = 2, read-out: Antiproliferative activity (%), SKLU-1): 64.5%
- IC50 [2]: 820 ± 60 nM
- Antiproliferative activity (%), SKLU-1 [2, 10]: moderately active
- SI (selectivity index), SKLU-1 ([2]; quotient of IC50 of COS-7 / IC50 of SKLU-1): 2.0
- IC50 [3]: 1620 ± 100 nM
- inhibition at 1 µM ([4]; primary screening at 1.0 μM, mean n = 2, read-out: Antiproliferative activity (%), K562): 48.6%
- Antiproliferative activity (%), MCF-7 ([5]; primary screening at 1.0 μM, mean n = 2, NC = No cytotoxic): non-toxic
- inhibition at 1 µM ([6]; primary screening at 1.0 μM, mean n = 2, read-out: Antiproliferative activity (%), PC-3): 34.2%
- inhibition at 1 µM ([7]; primary screening at 1.0 μM, mean n = 2, read-out: Antiproliferative activity (%), HCT-15): 33.4%
- Edema (TPA-induced ear edema): 9.87 ± 0.44 mg
- Inhibition of Edema (%) (TPA-induced ear edema): 37.4 ± 2.8% and 37.42 ± 2.77 %
- DPPH inhibitory effect (%) [8]: 6.1%
- melting point: 110 to 115 °C

Compound: CC(C)c1c(O)c(O)c2c(c1O)C(=O)CC1C3(CCCC1(C)C(=O)O3)C2 (stereo not shown) [Compound 4, 6,7,11,14-Tetrahydro-7-oxoicetexone]
- inhibition at 50 µM ([1]; Homo sapiens, U-251, primary screening at 50.0 μM, mean n = 2, NC = No cytotoxic, read-out: Antiproliferative activity (%), U251): 100%
- inhibition at 50 µM [2, 11]: 96.9%
- inhibition at 50 µM ([4]; primary screening at 50.0 μM, mean n = 2, NC = No cytotoxic, read-out: Antiproliferative activity (%), K562): 100%
- inhibition at 50 µM [5, 12]: 99%
- inhibition at 50 µM ([6]; primary screening at 50.0 μM, mean n = 2, NC = No cytotoxic, read-out: Antiproliferative activity (%), PC-3): 80.3%
- inhibition at 50 µM ([7]; primary screening at 50.0 μM, mean n = 2, NC = No cytotoxic, read-out: Antiproliferative activity (%), HCT-15): 76.7%
- Toxicity to the complete panel (in words) [9]: very toxic
- IC50 [8]: 98400 ± 3300 nM
- DPPH inhibitory effect (%) [8]: 64.5%
- melting point: 130 to 135 °C

Compound: CC(C)C1=C(O)C(=O)C2=C(C1=O)C(O)CC1C3(C)CCCC21C(O)OC3 (stereo not shown) [Compound 10, conacytone]
- inhibition at 50 µM [2, 11]: 11.8%
- inhibition at 50 µM [5, 12]: 14.7%
- Toxicity to the complete panel (in words) [9]: no toxicity
- Edema (TPA-induced ear edema): 11.77 ± 047 mg
- Inhibition of Edema (%) (TPA-induced ear edema): 25.4 ± 3.0% and 25.37 ± 2.98 %
- DPPH inhibitory effect (%) [8]: 4.8%

Compound: COc1ccc2c(c1)c(CC(=O)O)c(C)n2C(=O)c1ccc(Cl)cc1 [Indometacin, Indomethacin, reference compound]
- Edema (TPA-induced ear edema): 2.88 ± 0.73 mg
- Inhibition of Edema (%) (TPA-induced ear edema): 78.76 ± 7.68 %
- Inhibition of Edema (%) (TPA-induced ear edema; listed as indomethacine): 78.8 ± 7.7%

Compound: O=c1c(O)c(-c2ccc(O)c(O)c2)oc2cc(O)cc(O)c12 [quercetin, reference compound]
- IC50 [8]: 10900 ± 500 nM

Compound: Cc1c(C)c2c(c(C)c1O)CC[C@@](C)(CCC[C@H](C)CCC[C@H](C)CCCC(C)C)O2 [α-tocopherol, reference compound]
- IC50 [8]: 31700 ± 1040 nM
